Reference: ChEMBL document CHEMBL1201862, “PubChem BioAssay data set” (2004)
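A five-concentration, 48-hour dose response in 96-well plates underlies each endpoint, interpolated linearly between surrounding concentrations. Abbreviation: GI50, concentration required for 50% inhibition of growth.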 Activity calls are given as the source filed them. Cut-off read from the data, not from the text of the source: active = GI50 up to about 1.1 µM and inactive = higher.

Columns and labels:
Assay in all cases: DTP human tumour cell line panel, 48 h
RPMI-8226 = system: RPMI-8226
A549 = system: A549
OVCAR-8 = system: OVCAR-8
MOLT-4 = system: MOLT-4
KM12 = system: KM12
HOP-92 = system: HOP-92
ACHN = system: ACHN
UACC-257 = system: UACC-257
IGROV-1 = system: IGROV-1
HT-29 = system: HT-29
EKVX = system: EKVX
K562 = system: K562
M14 = system: M14
OVCAR-5 = system: OVCAR-5
SK-MEL-5 = system: SK-MEL-5
NCI-H522 = system: NCI-H522
SF-539 = system: SF-539
CCRF-CEM = system: CCRF-CEM
SNB-75 = system: SNB-75

Measured: GI50

CCCCCCNC(=O)c1cc(C#Cc2cc(OC)ccc2OC)ccc1OC
inactive: RPMI-8226 8.28 µM | A549 > 100 µM | OVCAR-8 > 100 µM | MOLT-4 4.84 µM | KM12 > 100 µM | HOP-92 9.77 µM | ACHN > 100 µM | UACC-257 > 100 µM | IGROV-1 72.1 µM | HT-29 7.53 µM | EKVX 58.9 µM | K562 3.92 µM | M14 17.5 µM | OVCAR-5 > 100 µM | SK-MEL-5 19.6 µM | NCI-H522 6.15 µM

COC(=O)c1c2c(cc3c1CC1(Cc4cc5c(c(C=O)c4C1)CCCC5)C3)CCCC2 (centres undefined)
inactive: SF-539 74.8 µM | RPMI-8226 > 100 µM | A549 33.5 µM | OVCAR-8 87.5 µM | MOLT-4 55.1 µM | HOP-92 56.6 µM | ACHN 23.9 µM | UACC-257 50.5 µM | IGROV-1 81.5 µM | HT-29 51.3 µM | EKVX 52.4 µM | K562 33.2 µM | M14 > 100 µM | OVCAR-5 > 100 µM | SK-MEL-5 71.4 µM | NCI-H522 32.1 µM

CCC/N=C1\S/C(=C/c2ccc(OC)c(OC)c2)C(=O)N1c1ccccc1
inactive: SF-539 7.91 µM | RPMI-8226 43.2 µM | A549 42.1 µM | OVCAR-8 82.2 µM | CCRF-CEM 58.7 µM | MOLT-4 33.9 µM | KM12 > 100 µM | HOP-92 33.1 µM | ACHN 42.8 µM | UACC-257 76.7 µM | IGROV-1 80.2 µM | HT-29 > 100 µM | EKVX 15.8 µM | K562 > 100 µM | M14 > 100 µM | OVCAR-5 44.9 µM | SK-MEL-5 37.6 µM | NCI-H522 40.6 µM

O=C(CCC1C(=O)NC(=S)NC1=O)c1ccc2ccccc2c1
inactive: SF-539 > 100 µM | A549 > 100 µM | OVCAR-8 > 100 µM | CCRF-CEM > 100 µM | MOLT-4 > 100 µM | KM12 > 100 µM | HOP-92 > 100 µM | ACHN > 100 µM | SNB-75 > 100 µM | UACC-257 > 100 µM | IGROV-1 > 100 µM | HT-29 > 100 µM | EKVX > 100 µM | K562 > 100 µM | M14 > 100 µM | OVCAR-5 > 100 µM | SK-MEL-5 > 100 µM | NCI-H522 14.8 µM

CN(C)c1ccc(/C=C2\CNC/C(=C\c3ccc(N(C)C)cc3)C2=O)cc1
inactive: SF-539 59.2 µM | RPMI-8226 54.6 µM | A549 27.4 µM | OVCAR-8 24.2 µM | CCRF-CEM 25.8 µM | MOLT-4 24.2 µM | KM12 > 10 µM | HOP-92 15.6 µM | ACHN 24.4 µM | SNB-75 11.1 µM | UACC-257 22.5 µM | IGROV-1 22 µM | HT-29 10.9 µM | EKVX > 100 µM | K562 24.2 µM | M14 86.7 µM | OVCAR-5 > 100 µM | SK-MEL-5 65.5 µM

CN(C)/C(=N\C#N)NCc1ccccc1
inactive: SF-539 > 100 µM | A549 > 100 µM | OVCAR-8 > 100 µM | KM12 > 100 µM | HOP-92 > 100 µM | ACHN > 100 µM | UACC-257 > 100 µM | IGROV-1 > 100 µM | HT-29 > 100 µM | EKVX > 100 µM | M14 > 100 µM | SK-MEL-5 > 100 µM | NCI-H522 > 100 µM
